Test results: patent US10800757B2, “Inhibitors of TRPC6” (Boehringer Ingelheim International GmbH, priority 2017, dated 2020)

These compounds were tested against TRPC6 (Homo sapiens (Human), UniProt Q9Y210) (assay: High throughput screening assay: fluorescent calcium (Fluo4/AM) assay of TRPC6 channel activation by GSK1702934A in HEK293/TREx cells). Settings: HEK293/TREx cells stably transfected with TRPC6; agonist GSK1702934A; 7 concentrations 20 μM to 0.027 μM, triplicate.
Type: cell-based
From the text: This screening assay measures TRPC6 (transient receptor potential cation channel, subfamily C, member 6) ion channel activation via addition either of the commercially available DAG ligand analogue OAG (1-oleoyl-2-acetyl-sn-glycerol) or of the TRPC6 agonist 1-[1-(4,5,6,7,8-pentahydrocyclohepta[2,1-d]thiophen-2-ylcarbonyl)-4-piperidyl]-3-hydrobenzimidazol-2-one (GSK1702934A). The assay utilizes a FLIPR fluorescent calcium sensor 4-(6-Acetoxymethoxy-2,7-difluoro-3-oxo-9-xanthenyl)-4′-methyl-2,2′-(ethylenedioxy)dianiline-N,N,N′,N′-tetraacetic acid tetrakis(acetoxymethyl) ester (Fluo4/AM) […]. Changes (increases) in intracellular membrane calcium concentration potential as measured by the fluorescent signal increase during membrane depolarization provide a measurement of channel activity.
The commercially available HEK293/TREx line (Invitrogen) was stably transfected with a TRPC6 construct and screened by conventional calcium imaging to find clones with TRPC6 expression following stimulation with 1 μg/ml tetracycline. These cells were maintained in the growth medium recommended by the manufacturer supplemented with 100 μg/ml hygromycin to promote retention of the TRPC6 construct. After growing to near confluency, cells were plated at a density of ^˜35,000 cells/well in 384 well CellBind plates (Corning) in the presence of 1 μg/ml tetracycline, and allowed to grow for 20-30 hrs. A nearly confluent monolayer resulted. Growth media was removed from the wells and cells were then loaded with […] Fluo4/AM diluted in Ringer's Solution (6.5 g NaCl, 0.42 g KCl, 0.25 g CaCl2) and 0.2 g of sodium bicarbonate; pH 7.4) supplemented with 1% Pluronic F-127 to a final concentration of 0.5 μM and incubated for 60 min, at room temperature. Dye solution was then removed from the cells by inverting plates with a sharp flick, and replaced with 25 μl Ringer's. Following ^˜0.5 hour for recovery from loading, cells were assayed using the Hamamatsu FDSS 6000 system, which permitted illumination at 485 nm. Frames were acquired at a rate of 0.2 Hz. During the assay, the plates were continuously vortexed, with pipette mixing of wells following addition of each reagent. For the screening assay, 26 μl of a diluted compound stock (at 50 μM) was added to each well for 2 minutes following the collection of a short (4 frame) baseline. 13 μl of agonist solution consisting of 125 nM GSK1702934A diluted in high-Ca2+Ringer solution (containing 90 mm Ca2+) was then added to each well, achieving a final concentration of 20 mm Ca2+ and 10 μM test compound. Data was collected for ^˜3 minutes following addition of high Ca2+Ringer. The fluorescent ratio for each well was divided by the initial fluorescent intensity for that well and the overall response was determined by averaging the fluorescent ratio of the last 4 frames acquired during the experiment excepting the final frame. Negative and Positive controls were included on each plate. Negative controls wells consisted of HEK293/TREx TRPC6 cells exposed to assay buffer and agonist solution, but no test compound. Positive control consisted of wells consisted of HEK293/TREx TRPC6 cells exposed to 25 μM 3-[(2-chlorophenoxy)methyl]phenyl piperidyl ketone (Chembridge) diluted in Ringer's solution and agonist solution. These controls defined zero percent and 100 percent block respectively, and intensity of each well was normalized to these values.
Compounds were tested in triplicate at all concentrations. Standard software was used to fit IC50 curves.

TRPC6, sequence (Q9Y210 whole entry, species assumed): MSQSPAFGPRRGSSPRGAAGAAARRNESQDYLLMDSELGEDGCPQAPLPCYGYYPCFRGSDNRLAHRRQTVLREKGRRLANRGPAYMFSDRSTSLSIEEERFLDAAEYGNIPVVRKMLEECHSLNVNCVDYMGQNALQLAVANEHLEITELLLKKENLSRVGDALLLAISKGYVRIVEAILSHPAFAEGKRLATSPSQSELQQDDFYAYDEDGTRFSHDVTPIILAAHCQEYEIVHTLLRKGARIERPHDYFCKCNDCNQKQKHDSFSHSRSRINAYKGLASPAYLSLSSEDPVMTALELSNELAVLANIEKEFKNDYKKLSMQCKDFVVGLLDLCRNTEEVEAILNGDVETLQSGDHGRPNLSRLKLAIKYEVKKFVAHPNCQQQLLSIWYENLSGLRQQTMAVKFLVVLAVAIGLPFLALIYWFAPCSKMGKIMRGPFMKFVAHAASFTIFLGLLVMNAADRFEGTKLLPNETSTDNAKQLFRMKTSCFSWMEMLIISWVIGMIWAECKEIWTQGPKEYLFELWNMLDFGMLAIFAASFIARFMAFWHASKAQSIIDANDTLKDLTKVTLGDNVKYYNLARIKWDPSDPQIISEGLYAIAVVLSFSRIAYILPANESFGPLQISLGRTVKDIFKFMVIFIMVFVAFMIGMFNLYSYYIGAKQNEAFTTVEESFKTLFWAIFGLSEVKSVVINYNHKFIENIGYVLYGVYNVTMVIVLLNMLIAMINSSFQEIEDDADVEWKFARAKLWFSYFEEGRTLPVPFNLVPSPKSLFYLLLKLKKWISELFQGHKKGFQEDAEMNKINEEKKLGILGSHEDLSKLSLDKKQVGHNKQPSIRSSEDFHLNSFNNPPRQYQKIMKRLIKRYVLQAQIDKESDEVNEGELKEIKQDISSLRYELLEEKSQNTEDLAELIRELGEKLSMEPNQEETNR

| Compound | IC50 [nM] |
| --- | --- |
| COc1cc(C(=O)N2CCN(c3cnc(N)cc3OC)CC2)ncc1OCC1CC1 [Compound 61, [4-(6-Amino-4-methoxy-pyridin-3-yl)-piperazin-1-yl]-(5-cyclopropylmethoxy-4-methoxy-pyridin-2-yl)-methanone] | 500 |
| COc1cc(C(=O)N2CCC(c3cnc(N)cc3OC)CC2)ncc1OCC1CC1 [Compound 37, 5-{1-[5-(Cyclopropylmethoxy)-4-methoxypyridine-2-carbonyl]piperidin-4-yl}-4-methoxypyridin-2-amine] | 160 |
| COc1cc(C(=O)N2CCC(c3cnc(N)cc3OC3CC3)CC2)ncc1Oc1ccccc1 [Compound 84, (6-Amino-4-cyclopropoxy-3′,4′,5′,6′-tetrahydro-2′H-[3,4′]bipyridinyl-1′-yl)-[5-(phenoxy)-4-methoxy-pyridin-2-yl]-methanone] | 300 |
| COc1cc(C(=O)N2CCC(c3ccc(N)nn3)CC2)ncc1Oc1ccccc1 [Compound 16, [4-(6-Amino-pyridazin-3-yl)-piperidin-1-yl]-(4-methoxy-5-phenoxy-pyridin-2-yl)-methanone] | 27 |
| COc1cc(C(=O)N2CCC(c3nnc(N)cc3OC)CC2)ncc1Oc1ccc(F)cc1 [Compound 49, [4-(6-Amino-4-methoxy-pyridazin-3-yl)-piperidin-1-yl]-[5-(4-fluoro-phenoxy)-4-methoxy-pyridin-2-yl]-methanone] | 250 |
| COc1cc(C(=O)N2CCC(c3cnc(N)cc3OC)CC2)ncc1OCCc1ccccc1 [Compound 52, (6-Amino-4-methoxy-3′,4′,5′,6′-tetrahydro-2′H-[3,4′]bipyridinyl-1′-yl)-(4-methoxy-5-phenethyloxy-pyridin-2-yl)-methanone] | 190 |
| COc1cc(C(=O)N2CCC(c3ccc(N)nn3)CC2)ncc1OCc1ccccc1F [Compound 57, [4-(6-Amino-pyridazin-3-yl)-piperidin-1-yl]-[5-(2-fluoro-benzyloxy)-4-methoxy-pyridin-2-yl]-methanone] | 300 |
| COc1cc(C(=O)N2CCN(c3cnc(N)cc3OC)CC2)ncc1Oc1ccc(F)cc1 [Compound 1, 5-{4-[5-(4-Fluorophenoxy)-4-methoxypyridine-2-carbonyl]piperazin-1-yl}-4-methoxypyridin-2-amine] | < 27 |
| COc1cc(C(=O)N2CCC(c3cnc(N)cc3OC)CC2)ncc1Oc1ccccc1 [Compound 23, (6-Amino-4-methoxy-3′,4′,5′,6′-tetrahydro-2′H-[3,4′]bipyridinyl-1′-yl)-(4-methoxy-5-phenoxy-pyridin-2-yl)-methanone] | 54 |
| COc1cc(N)ncc1N1CCN(C(=O)c2ccc(Oc3ccccc3)cn2)[C@@H]([C@@H](C)O)C1 [Compound 50, (1R)-1-[(2R)-4-(6-amino-4-methoxypyridin-3-yl)-1-(5-phenoxypyridine-2-carbonyl)piperazin-2-yl]ethan-1-ol] | 47 |
| COc1cc(C(=O)N2CCC(c3cnc(N)cc3OC)CC2)ncc1OCC(C)C(F)(F)F (single isomer, unassigned) [Compound 94a, 4-Methoxy-5-(1-{4-methoxy-5-[3,3,3-trifluoro-2-methylpropoxy]pyridine-2-carbonyl}piperidin-4-yl)-pyridin-2-amine] | 343 |
| COc1cc(C(=O)N2CCC(c3ccc(N)nn3)CC2)ncc1Oc1ccc(OC2CC2)cc1 [Compound 40, [4-(6-Amino-pyridazin-3-yl)-piperidin-1-yl]-[5-(4-cyclopropoxy-phenoxy)-4-methoxy-pyridin-2-yl]-methanone] | 170 |
| CCOc1cc(C(=O)N2CCC(c3ccc(N)nn3)CC2)ncc1Oc1ccccc1 [Compound 83, [4-(6-Amino-pyridazin-3-yl)-piperidin-1-yl]-[5-(phenoxy)-4-ethoxy-pyridin-2-yl]-methanone] | 98 |
| COc1cc(C(=O)N2CCC(c3cnc(N)cc3OC)CC2)ncc1OCc1ccccc1 [Compound 43, (6-Amino-4-methoxy-3′,4′,5′,6′-tetrahydro-2′H-[3,4′]bipyridinyl-1′-yl)-(5-benzyloxy-4-methoxy-pyridin-2-yl)-methanone] | 140 |
| COc1cc(C(=O)N2CCC(c3nnc(N)cc3C)CC2)ncc1OCC1CC1 [Compound 78, [4-(6-Amino-4-methyl-pyridazin-3-yl)-piperidin-1-yl]-(5-cyclopropylmethoxy-4-methoxy-pyridin-2-yl)-methanone] | 2800 |
| COc1cc(C(=O)N2CCC(c3cnc(N)cc3OC)CC2)ncc1OC1CCCCC1 [Compound 30, (6-Amino-4-methoxy-3′,4′,5′,6′-tetrahydro-2′H-[3,4′]bipyridinyl-1′-yl)-(5-cyclohexyloxy-4-methoxy-pyridin-2-yl)-methanone] | 110 |
| COc1cc(C(=O)N2C3CCC2CN(c2cnc(N)cc2OC)C3)ncc1Oc1ccc(F)cc1 [Compound 38, [3-(6-Amino-4-methoxy-pyridin-3-yl)-3,8-diaza-bicyclo[3.2.1]oct-8-yl]-[5-(4-fluoro-phenoxy)-4-methoxy-pyridin-2-yl]-methanone] | 170 |
| CCCOc1cnc(C(=O)N2CCC(c3ccc(N)nn3)CC2)cc1OC [Compound 76, [4-(6-Amino-pyridazin-3-yl)-piperidin-1-yl]-(4-methoxy-5-propoxy-pyridin-2-yl)-methanone] | 1800 |
| COc1cc(C(=O)N2CCC(c3cnc(N)cc3OC)CC2)ncc1OCc1ccccc1F [Compound 19, (6-Amino-4-methoxy-3′,4′,5′,6′-tetrahydro-2′H-[3,4′]bipyridinyl-1′-yl)-[5-(2-fluoro-benzyloxy)-4-methoxy-pyridin-2-yl]-methanone] | 32 |
| COc1cc(C(=O)N2CCN(c3cnc(N)cc3OC)CC23CC3)ncc1Oc1ccccc1 [Compound 8, [7-(6-Amino-4-methoxy-pyridin-3-yl)-4,7-diaza-spiro[2.5]oct-4-yl]-(4-methoxy-5-phenoxy-pyridin-2-yl)-methanone] | 27 |
| COc1cc(N)nnc1C1CCN(C(=O)c2ccc(Oc3ccc(C(F)(F)F)cc3)cn2)CC1 [Compound 91, 5-Methoxy-6-(1-{5-[4-(trifluoromethyl)phenoxy]pyridine-2-carbonyl}piperidin-4-yl)pyridazin-3-amine trifluoroacetic acid] | 414 |
| COc1ccc(Oc2cnc(C(=O)N3CCC(c4ccc(N)nc4)CC3)cc2OC)cc1 [Compound 22, (6-Amino-3′,4′,5′,6′-tetrahydro-2′H-[3,4′]bipyridinyl-1′-yl)-[4-methoxy-5-(4-methoxy-phenoxy)-pyridin-2-yl]-methanone] | 46 |
| COc1cc(C(=O)N2C3COCC2CC(c2cnc(N)cc2OC)C3)ncc1Oc1ccccc1 (stereo not shown) [Compound 68, [7-(6-Amino-4-methoxy-pyridin-3-yl)-3-oxa-9-aza-bicyclo[3.3.1]non-9-yl]-(4-methoxy-5-phenoxy-pyridin-2-yl)-methanone] | 630 |
| COc1cc(C(=O)N2CCN(c3cnc(N)cc3OC)C[C@H]2CO)ncc1Oc1ccc(F)cc1 [Compound 63, [(S)-4-(6-Amino-4-methoxy-pyridin-3-yl)-2-hydroxymethyl-piperazin-1-yl]-[5-(4-fluoro-phenoxy)-4-methoxy-pyridin-2-yl]-methanone] | 670 |
| COc1cc(C(=O)N2CCN(c3cnc(N)cc3OC)C[C@H]2CO)ncc1Oc1ccccc1 [Compound 71, [(S)-4-(6-Amino-4-methoxy-pyridin-3-yl)-2-hydroxymethyl-piperazin-1-yl]-(4-methoxy-5-phenoxy-pyridin-2-yl)-methanone] | 850 |
